One experiment has as its system P. aeruginosa. Kind of experiment: Biolog Phenotype Microarray PM1-2 growth on carbon sources. It is filed as cell-based, Pseudomonas aeruginosa. Particulars: 35 hours, absorbance 590 nm, n = 1; cells without values AUC < 50. The essentials:
(§1)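 Growth on 190 carbon sources in Biolog PM1 and PM2 panels, inoculated per manufacturer's protocol. Growth curves followed for 35 hours by absorbance at 590 nm.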

The next experiment concerns R. dentocariosa. The experiment is described as above. The conditions noted are these: 35 hours, absorbance 590 nm, n = 1; cells without values AUC < 50. The experiment is classed as cell-based, Rothia dentocariosa. Summed up: as §1
A further experiment relates to S. aureus. The experiment is classed as cell-based, Staphylococcus aureus. Summed up: as §1
The next experiment relates to R. mucilaginosa. Kind of experiment: Biolog Phenotype Microarray PM1-2 growth on carbon sources. Particulars: 35 hours, absorbance 590 nm, n = 1; cells without values AUC < 50. The experiment is classed as cell-based, Rothia mucilaginosa. Summed up:
as §1

A further experiment has as its system G. haemolysans. The description is as above. The conditions noted are these: 35 hours, absorbance 590 nm, n = 1; cells without values AUC < 50. It is filed as cell-based, Gemella haemolysans. On the procedure: Using Phenotype Microarray (PM) panels (Biolog), the influence of 190 carbon sources on the growth of the potential probiotic species R. mucilaginosa, R. dentocariosa, R. gilardii, G. haemolysans, and common respiratory pathogens P. aeruginosa, and S. aureus was determined. PM1 and PM2 panels (Biolog) were inoculated according to the manufacturer's instructions. Growth curves were generated for 35 hours by measuring the absorbance at 590 nm using an EnVision (Perkin Elmer) plate reader.

The subject of the next experiment is R. gilardii. The experiment is described as above. The experiment is classed as cell-based, Roseomonas gilardii. The conditions noted are these: 35 hours, absorbance 590 nm, n = 1; cells without values AUC < 50. The essentials: as §1
The test system of another experiment is NF-κB pathway. Kind of experiment: NF-κB-luciferase reporter 3-D A549 cells stimulated with LPS (Example 2). It is filed as cell-based, human. Particulars: acetate at 28.3 mM and 18.0 mM, 4-hour incubation (FIG. 10). (In general: A reporter such as luciferase makes a cellular process visible.)

Where two headings read alike, the source gives them in different places.

Data on five compounds can be found in patent publication US20230293599A1, “BACTERIAL COMPOSITIONS WITH ANTI-INFLAMMATORY ACTIVITY” (Universiteit Gent, priority 2020, published 2023).

Experimental for NF-κB pathway: 3-D cells of the human adenocarcinoma alveolar lung epithelial cell line A549 transfected with an NF-κB-luciferase reporter (BPS Bioscience, San Diego, CA) were prepared as described previously for A549 cells (Crabbé et al., 2016; Barrila et al., 2010; Harris et al. 2007; Chen et a., 2019). Briefly, a monolayer of NF-κB-A549 cells was grown in T75 cell culture flasks containing GTSF-2 medium (HyClone, Logan, UT) supplemented with 1.5 g/L sodium bicarbonate (Sigma-Aldrich), 10% fetal bovine serum (FBS, Life technologies), 2.5 mg/L insulin transferring sodium selenite (Lonza) and 1% penicillin-streptomycin (pen-strep, Life Technologies) at 37° C. under 5% CO2. At confluence, the cells were seeded in the Rotating Wall Vessel (RWV) bioreactor with type-1 collagen coated dextran beads at a cell to bead ratio of 2:1 and were cultured for 11 to 14 days. […]
The NF-κB pathway was activated in 3-D NF-κB -A549 cells by 4 hours stimulation with LPS (100 μg/mL) in the presence or absence (positive control) of each of the isolates (Table 1) at varying multiplicity of infection (MOI) starting from an MOI of 100 to an MOI of 1.56 by performing 1:2 serial dilutions. […] After 4 hours incubation, 3-D epithelial cells containing the NF-κB -luciferase reporter were transferred to a black 96-well plate for analysis of luminescence. […] Luminescence was measured by an EnVision (Perkin Elmer) luminometer.

In the case of `C[C@H](O)[C@H](O)[C@@H](O)[C@@H](O)C=O` [L-Rhamnose], the “AUC of growth curve, P. aeruginosa” value with P. aeruginosa is 265.3. For the same compound, the “AUC of growth curve, R. dentocariosa” value in the experiment with R. dentocariosa is 149.9. In addition, the “AUC of growth curve, S. aureus” value in the experiment on S. aureus worked out at 423.5. For the same compound, in the experiment on R. mucilaginosa, the “AUC of growth curve, R. mucilaginosa” value turned out to be 197.8. In addition, the “AUC of growth curve, G. haemolysans” value with G. haemolysans was determined as 104.6. Besides, the “AUC of growth curve, R. gilardii” value with R. gilardii was determined as 178.6.
For `CC(=O)C(=O)O` [Pyruvic Acid], in the experiment on P. aeruginosa, the “AUC of growth curve, P. aeruginosa” value is listed as 877.9. Also, the “AUC of growth curve, R. dentocariosa” value in the experiment with R. dentocariosa is listed as 343.3. The “AUC of growth curve, S. aureus” value in the experiment with S. aureus came to 763.0. For the same compound, the “AUC of growth curve, R. mucilaginosa” value in the experiment with R. mucilaginosa was found to be 205.5. For the same compound, the “AUC of growth curve, G. haemolysans” value in the experiment with G. haemolysans was 552.9. Also, the “AUC of growth curve, R. gilardii” value in the experiment on R. gilardii is on record as 215.7.
As for `CC(=O)O` [acetate], the “effect on LPS-stimulated NF-κB pathway activation” value in the experiment on NF-κB pathway was “did not reduce”.
For `OC[C@H]1O[C@H](O)[C@H](O)[C@@H](O)[C@@H]1O` [α-D-Glucose], the “AUC of growth curve, P. aeruginosa” value with P. aeruginosa was found to be 830.2. Besides, the “AUC of growth curve, R. dentocariosa” value with R. dentocariosa was determined as 1288.0. The “AUC of growth curve, S. aureus” value with S. aureus worked out at 966.1. For the same compound, in the experiment with R. mucilaginosa, the “AUC of growth curve, R. mucilaginosa” value is 1068.2. Also, the “AUC of growth curve, G. haemolysans” value in the experiment on G. haemolysans was 1140.8. In addition, in the experiment with R. gilardii, the “AUC of growth curve, R. gilardii” value was found to be 115.5.
As to Pectin, the “AUC of growth curve, P. aeruginosa” value with P. aeruginosa came out at 334.5. Moreover, the “AUC of growth curve, R. dentocariosa” value in the experiment with R. dentocariosa came out at 683.6. The “AUC of growth curve, S. aureus” value in the experiment with S. aureus (35 hours, absorbance 590 nm, n = 1, cells without values AUC < 50) is on record as 996.1. The “AUC of growth curve, R. mucilaginosa” value with R. mucilaginosa is recorded as 199.5. The “AUC of growth curve, G. haemolysans” value in the experiment with G. haemolysans was determined as 68.6. Besides, the “AUC of growth curve, R. gilardii” value with R. gilardii was 141.7.
